The values that follow come from article PMC6816013 (Journal of Medicinal Chemistry, 2019).

Counter-ions that a name gives are not always drawn.

HSA, sequence (P02768 25-609): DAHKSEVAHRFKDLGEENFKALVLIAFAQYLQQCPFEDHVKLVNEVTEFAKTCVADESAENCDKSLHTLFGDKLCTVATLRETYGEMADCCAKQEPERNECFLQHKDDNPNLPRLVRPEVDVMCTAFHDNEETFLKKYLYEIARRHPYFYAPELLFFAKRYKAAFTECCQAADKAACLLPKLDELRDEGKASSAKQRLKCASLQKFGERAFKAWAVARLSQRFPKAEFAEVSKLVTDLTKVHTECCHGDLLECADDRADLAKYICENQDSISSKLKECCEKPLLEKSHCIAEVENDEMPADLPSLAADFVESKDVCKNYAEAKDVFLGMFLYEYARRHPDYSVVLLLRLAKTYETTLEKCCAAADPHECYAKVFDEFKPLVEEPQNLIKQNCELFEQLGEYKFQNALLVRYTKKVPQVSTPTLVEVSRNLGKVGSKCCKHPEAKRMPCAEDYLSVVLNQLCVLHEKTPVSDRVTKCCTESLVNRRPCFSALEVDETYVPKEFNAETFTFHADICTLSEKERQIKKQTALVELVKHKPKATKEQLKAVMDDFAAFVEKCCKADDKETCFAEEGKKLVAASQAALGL

One series addresses HSA (Homo sapiens, UniProt P02768). In words: HSA binding (plasma protein binding).
Conditions: not given
It is filed as in vitro ADME.
In turn, `CCOC(=O)N1CCC(c2nc(-c3ccc(F)cc3)c(-c3ccnc(Nc4ccc(N5CCN(C)CC5)cc4)n3)s2)CC1` [Compound 8] showed an HSA binding of 98%. For `Nc1nc(-c2ccc(F)cc2)c(-c2ccnc(Nc3ccc(N4CCNCC4)cc3)n2)s1` [Compound 12, 4-[2-Amino-4-(4-fluorophenyl)-1,3-thiazol-5-yl]-N-[4-(piperazin-1-yl)phenyl]pyrimidin-2-amine], the HSA binding amounted to 98%. `CCc1cc(Nc2nccc(-c3sc(C4CCNCC4)nc3-c3ccc(F)cc3)n2)nc(C)c1F` [Compound 36, N-(4-Ethyl-5-fluoro-6-methylpyridin-2-yl)-4-(4-(4-fluorophenyl)-2-(piperidin-4-yl)thiazol-5-yl)pyrimidin-2-amine] displayed an HSA binding of 97%. Consider `Cc1nc(Nc2nccc(-c3sc(C4CCNCC4)nc3-c3ccc(F)cc3)n2)cc(C2CCC2)c1F` [Compound 38, N-(4-Cyclobutyl-5-fluoro-6-methylpyridin-2-yl)-4-(4-(4-fluorophenyl)-2-(piperidin-4-yl)thiazol-5-yl)pyrimidin-2-amine], for which the HSA binding came out at 98%.

Regarding `OCCNc1nccc(-c2sc(C3CCNCC3)nc2-c2ccc(F)cc2)n1` [Compound 42, 2-({4-[4-(4-Fluorophenyl)-2-(piperidin-4-yl)-1,3-thiazol-5-yl]pyrimidin-2-yl}amino)ethanol], the HSA binding is 79%.

`COCCNc1nccc(-c2sc(C3CCNCC3)nc2-c2ccc(F)cc2)n1` [Compound 43, 4-[4-(4-Fluorophenyl)-2-(piperidin-4-yl)-1,3-thiazol-5-yl]-N-(2-methoxyethyl)pyrimidin-2-amine] registered an HSA binding of 80%.

Consider `Fc1ccc(-c2nc(C3CCNCC3)sc2-c2ccnc(NCC3CCCO3)n2)cc1` (stereo not drawn) [Compound 44, 4-[4-(4-Fluorophenyl)-2-(piperidin-4-yl)-1,3-thiazol-5-yl]-N-(tetrahydrofuran-2-ylmethyl)pyrimidin-2-amine], for which the HSA binding came to 86%. `CN(C)CCNc1nccc(-c2sc(C3CCNCC3)nc2-c2ccc(F)cc2)n1` [Compound 45, N′-{4-[4-(4-Fluorophenyl)-2-(piperidin-4-yl)-1,3-thiazol-5-yl]pyrimidin-2-yl}-N,N-dimethylethane-1,2-diamine] came in with an HSA binding of 83%. For `CN(C)C(CNc1nccc(-c2sc(C3CCNCC3)nc2-c2ccc(F)cc2)n1)C1CC1` (stereo not drawn) [Compound 46, 1-Cyclopropyl-N′-{4-[4-(4-fluorophenyl)-2-(piperidin-4-yl)-1,3-thiazol-5-yl]pyrimidin-2-yl}-N,N-dimethylethane-1,2-diamine], the HSA binding stood at 91%.

On to `Fc1ccc(-c2nc(C3CCNCC3)sc2-c2ccnc(NCCN3CCCC3)n2)cc1` [Compound 47, 4-[4-(4-Fluorophenyl)-2-(piperidin-4-yl)-1,3-thiazol-5-yl]-N-[2-(pyrrolidin-1-yl)ethyl]pyrimidin-2-amine], for which the HSA binding was 86%.

For `CN1CCN(CCNc2nccc(-c3sc(C4CCNCC4)nc3-c3ccc(F)cc3)n2)CC1` [Compound 48, 4-[4-(4-Fluorophenyl)-2-(piperidin-4-yl)-1,3-thiazol-5-yl]-N-[2-(4-methylpiperazin-1-yl)ethyl]pyrimidin-2-amine], the HSA binding is given as 90%. On the same count and under the same terms, the result for `Fc1ccc(-c2nc(C3CCNCC3)sc2-c2ccnc(NCCN3CCOCC3)n2)cc1` [Compound 49, 4-(4-(4-Fluorophenyl)-2-(piperidin-4-yl)thiazol-5-yl)-N-(2-morpholinoethyl)pyrimidin-2-amine] reads 83%; that for `O[C@H]1CC[C@H](Nc2nccc(-c3sc(C4CCNCC4)nc3-c3ccc(F)cc3)n2)CC1` [Compound 51, trans-4-({4-[4-(4-Fluorophenyl)-2-(piperidin-4-yl)-1,3-thiazol-5-yl]pyrimidin-2-yl}amino)cyclohexanol], 85%; that for `CN1CCC(Nc2nccc(-c3sc(C4CCNCC4)nc3-c3ccc(F)cc3)n2)C1` (stereo not drawn) [Compound 52, 4-[4-(4-Fluorophenyl)-2-(piperidin-4-yl)-1,3-thiazol-5-yl]-N-(1-methylpyrrolidin-3-yl)pyrimidin-2-amine], 89%. As to `Fc1ccc(-c2nc(C3CCNCC3)sc2-c2ccnc(N3CCCC3)n2)cc1` [Compound 53, 4-[4-(4-Fluorophenyl)-2-(piperidin-4-yl)-1,3-thiazol-5-yl]-2-(pyrrolidin-1-yl)pyrimidine], the HSA binding was found to be 93%. For `OC1CCN(c2nccc(-c3sc(C4CCNCC4)nc3-c3ccc(F)cc3)n2)C1` (stereo not drawn) [Compound 54, 1-{4-[4-(4-Fluorophenyl)-2-(piperidin-4-yl)-1,3-thiazol-5-yl]pyrimidin-2-yl}pyrrolidin-3-ol], the HSA binding is reported as 85%. Take `Fc1ccc(-c2nc(C3CCNCC3)sc2-c2ccnc(N3CCC(N4CCC4)CC3)n2)cc1` [Compound 55, 2-[4-(Azetidin-1-yl)piperidin-1-yl]-4-[4-(4-fluorophenyl)-2-(piperidin-4-yl)-1,3-thiazol-5-yl]pyrimidine]: the HSA binding is recorded as 90%. Consider `Fc1ccc(-c2nc(C3CCNCC3)sc2-c2ccnc(N3CCC(N4CCOCC4)CC3)n2)cc1` [Compound 56, 4-(1-(4-(4-(4-Fluorophenyl)-2-(piperidin-4-yl)thiazol-5-yl)pyrimidin-2-yl)piperidin-4-yl)morpholine], for which the HSA binding was found to be 90%. The same measure, in the same setting: the result for `Fc1ccc(-c2nc(C3CCNCC3)sc2-c2ccnc(N3CCC(CN4CCOCC4)CC3)n2)cc1` [Compound 57, 4-((1-(4-(4-(4-Fluorophenyl)-2-(piperidin-4-yl)thiazol-5-yl)pyrimidin-2-yl)piperidin-4-yl)methyl)morpholine] reads 93%.

Tested on in another series: not given
Test: not given
Particulars: PAMPA.
Turning to `Fc1ccc(-c2nc(N3CCOCC3)sc2-c2ccnc(Nc3ccc(N4CCNCC4)cc3)n2)cc1` [Compound 9, 4-[4-(4-Fluorophenyl)-2-(morpholin-4-yl)-1,3-thiazol-5-yl]-N-[4-(piperazin-1-yl)phenyl]pyrimidin-2-amine Trifluoroacetate], the AMP was found to be 2.8. Still for that read-out and setting: as for `Fc1ccc(-c2nc(N3CCCC3)sc2-c2ccnc(Nc3ccc(N4CCNCC4)cc3)n2)cc1` [Compound 10, 4-[4-(4-Fluorophenyl)-2-(pyrrolidin-1-yl)-1,3-thiazol-5-yl]-N-[4-(piperazin-1-yl)phenyl]pyrimidin-2-amine Trifluoroacetate], the figure is 2.7; as for `CN1CCN(c2ccc(Nc3nccc(-c4sc(N)nc4-c4ccc(F)cc4)n3)cc2)CC1` [Compound 11, 4-[2-Amino-4-(4-fluorophenyl)-1,3-thiazol-5-yl]-N-[4-(4-methylpiperazin-1-yl)phenyl]pyrimidin-2-amine Trifluoroacetate], 2.6. The same measure, in the same setting: the result for `O=C(Nc1nc(-c2ccc(F)cc2)c(-c2ccnc(Nc3ccc(N4CCNCC4)cc3)n2)s1)C1CC1` [Compound 15, N-[4-(4-Fluorophenyl)-5-{2-[4-(piperazin-1-yl)anilino]pyrimidin-4-yl}-1,3-thiazol-2-yl]cyclopropanecarboxamide Trifluoroacetate] reads 0.2. On to `CN1CCC(C(=O)Nc2nc(-c3ccc(F)cc3)c(-c3ccnc(Nc4ccc(N5CCNCC5)cc4)n3)s2)CC1` [Compound 16, N-[4-(4-Fluorophenyl)-5-{2-[4-(piperazin-1-yl)anilino]pyrimidin-4-yl}-1,3-thiazol-2-yl]-1-methylpiperidine-4-carboxamide Trifluoroacetate], for which the AMP is on record as 0.1.
